Common to all, as to assay type: cell-based
Test [1] concerns the target NK1 (Homo sapiens, UniProt P25103). Briefly: Signal transduction (ST), intracellular Ca++ (FLIPR), NK1 antagonistic activity. Conditions: read-out: pIC50 NK1 (converted). The essentials: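 Antagonist IC50 was fitted by non-linear regression of peak intracellular Ca++ signals measured on FLIPR after agonist challenge. Beforehand, Fluo3-loaded confluent cells received antagonists over a concentration range for 20 min at room temperature in Ca++ Krebs buffer, pH 7.4.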

The target of test [2] is T1, NK2 (Homo sapiens, UniProt P21452).
T1 sequence (P21452 1-398): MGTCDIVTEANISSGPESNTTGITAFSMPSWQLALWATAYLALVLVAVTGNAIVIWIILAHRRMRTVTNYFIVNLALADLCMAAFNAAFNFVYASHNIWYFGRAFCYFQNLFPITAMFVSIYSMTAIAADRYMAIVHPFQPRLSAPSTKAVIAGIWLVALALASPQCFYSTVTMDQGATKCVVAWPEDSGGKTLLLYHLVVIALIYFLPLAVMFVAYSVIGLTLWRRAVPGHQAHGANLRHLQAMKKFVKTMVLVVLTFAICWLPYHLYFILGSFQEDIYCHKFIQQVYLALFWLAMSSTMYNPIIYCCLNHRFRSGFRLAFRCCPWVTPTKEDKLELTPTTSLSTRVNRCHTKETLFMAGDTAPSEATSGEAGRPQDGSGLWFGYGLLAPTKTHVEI
Briefly: Signal transduction (ST), intracellular Ca++ (FLIPR), NK2. Conditions: read-out: pIC50 NK2 (converted). Here is the method: [The procedure below names another target; the source lists this target under the same test.] This test evaluates in vitro functional NK1 antagonistic activity. For the measurements of intracellular Ca^++ concentrations the cells were grown on 96-well (black wall/transparent bottom) plates from Costar for 2 days until they reached confluence. The cells were loaded with 2 μM Fluo3 in DMEM containing 0.1% BSA and 2.5 mM probenecid for 1 h at 37° C. They were washed 3× with a Krebs buffer (140 mM NaCl, 1 mM MgCl2×6H2O, 5 mM KCl, 10 mM glucose, 5 mM HEPES; 1.25 mM CaCl2; pH 7.4) containing 2.5 mM probenecid and 0.1% BSA (Ca^++-buffer). The cells were preincubated with a concentration range of antagonists for 20 min at RT and Ca^++-signals after addition of the agonists were measured in a Fluorescence Image Plate Reader (FLIPR from Molecular Devices, Crawley, England). The peak of the Ca^++-transient was considered as the relevant signal and the mean values of corresponding wells were analysed as described below.
The sigmoidal dose response curves were analysed by computerised curve-fitting, using the GraphPad Program. […] For antagonist responses the IC50-value was calculated using non-linear regression.
The last columns indicates—without being limited therefore—for which the compounds might be most suitable. Of course, since for some neurokinin receptors no data was determined, it is obvious that these compounds might be attributed to another suitable use.

Test [3] addresses T2, NK3 (Homo sapiens, UniProt P29371).
T2 sequence (P29371 1-465): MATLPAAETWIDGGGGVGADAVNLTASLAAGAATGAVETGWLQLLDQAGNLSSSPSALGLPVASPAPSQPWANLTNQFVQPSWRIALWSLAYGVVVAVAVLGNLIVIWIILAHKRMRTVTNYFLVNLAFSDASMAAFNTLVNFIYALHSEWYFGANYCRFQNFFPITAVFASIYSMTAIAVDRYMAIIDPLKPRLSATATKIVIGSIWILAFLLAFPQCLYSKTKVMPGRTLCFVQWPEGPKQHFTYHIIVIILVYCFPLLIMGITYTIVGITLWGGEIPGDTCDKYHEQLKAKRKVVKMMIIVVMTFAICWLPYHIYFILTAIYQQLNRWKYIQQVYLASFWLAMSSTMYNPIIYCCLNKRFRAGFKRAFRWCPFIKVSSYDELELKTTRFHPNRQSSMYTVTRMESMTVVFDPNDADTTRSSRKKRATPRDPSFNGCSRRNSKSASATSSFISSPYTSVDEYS
The experiment in a line: Signal transduction (ST), intracellular Ca++ (FLIPR), NK3. Conditions: read-out: pIC50 NK3 (converted).

Each structure is given as a SMILES string.

Chain of NK1 (P25103 whole entry): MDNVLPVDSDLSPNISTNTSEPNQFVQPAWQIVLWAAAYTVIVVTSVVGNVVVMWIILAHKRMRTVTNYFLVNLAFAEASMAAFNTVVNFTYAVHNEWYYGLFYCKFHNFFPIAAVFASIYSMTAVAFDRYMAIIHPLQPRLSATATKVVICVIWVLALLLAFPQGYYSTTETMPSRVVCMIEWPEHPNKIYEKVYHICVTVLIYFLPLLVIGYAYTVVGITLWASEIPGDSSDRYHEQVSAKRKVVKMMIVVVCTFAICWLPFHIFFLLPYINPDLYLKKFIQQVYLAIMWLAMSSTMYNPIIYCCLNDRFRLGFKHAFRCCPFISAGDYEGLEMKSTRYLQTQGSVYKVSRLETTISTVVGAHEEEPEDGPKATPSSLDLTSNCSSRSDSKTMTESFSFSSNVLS

`O=C(c1cccs1)N1CCC(N2CCN(C3CCN(C(=O)c4cc(C(F)(F)F)cc(C(F)(F)F)c4)C(Cc4ccc(F)c(F)c4)C3)CC2)C1` (single isomer, unassigned) [Compound 254]: the IC50 in test [1] is 0.01 µM; in test [2] it was 0.251 µM; in test [3], 0.501 µM.

Turning to `O=C(c1ccsc1)N1CCC(N2CCN(C3CCN(C(=O)c4cc(C(F)(F)F)cc(C(F)(F)F)c4)C(Cc4ccc(F)c(F)c4)C3)CC2)C1` (single isomer, unassigned) [Compound 257], the figures for the IC50 in test [1], in test [2] and in test [3] were 0.01 µM, 0.316 µM and 0.631 µM, respectively.

In the case of `O=C(c1ccoc1)N1CCC(N2CCN(C3CCN(C(=O)c4cc(C(F)(F)F)cc(C(F)(F)F)c4)C(Cc4ccc(F)c(F)c4)C3)CC2)C1` (single isomer, unassigned) [Compound 258], the figures for the IC50 in test [1], in test [2] and in test [3] were 0.0126 µM, 0.501 µM and 0.398 µM, respectively.

For `O=C(c1cnccn1)N1CCC(N2CCN(C3CCN(C(=O)c4cc(C(F)(F)F)cc(C(F)(F)F)c4)C(Cc4ccc(F)c(F)c4)C3)CC2)C1` (single isomer, unassigned) [Compound 259], the IC50 is 0.0126 µM in test [1], 2 µM in test [2] and 0.501 µM in test [3].

Take `Cn1cccc(C(=O)N2CCC(N3CCN(C4CCN(C(=O)c5cc(C(F)(F)F)cc(C(F)(F)F)c5)C(Cc5ccc(F)c(F)c5)C4)CC3)C2)c1=O` (single isomer, unassigned) [Compound 260]: the IC50 in test [1] was 0.0158 µM; in test [2], 0.398 µM; in test [3], 3.98 µM.

Turning to `O=C(C1CCOC1)N1CCC(N2CCN(C3CCN(C(=O)c4cc(C(F)(F)F)cc(C(F)(F)F)c4)C(Cc4ccc(F)c(F)c4)C3)CC2)C1` (single isomer, unassigned) [Compound 269], the IC50 in test [1] was 0.00398 µM; in test [2] it was 2.51 µM; in test [3], 6.31 µM.

Consider `O=C(C1CCOC1)N1CCC(N2CCN(C3CCN(C(=O)c4cc(C(F)(F)F)cc(C(F)(F)F)c4)C(Cc4ccc(F)c(F)c4)C3)CC2)C1` (single isomer, unassigned) [Compound 270], for which the IC50 in test [1] is 0.00316 µM; in test [2] it was 2 µM; in test [3] it was 1.26 µM.

On to `O=C(C1CCOC1)N1CCC(N2CCN(C3CCN(C(=O)c4cc(C(F)(F)F)cc(C(F)(F)F)c4)C(Cc4ccc(F)c(F)c4)C3)CC2)C1` (single isomer, unassigned) [Compound 281], for which the IC50 is 0.00501 µM in test [1], 3.98 µM in test [2] and 3.16 µM in test [3].

For the molecule `O=C(C1CCOC1)N1CCC(N2CCN(C3CCN(C(=O)c4cc(C(F)(F)F)cc(C(F)(F)F)c4)C(Cc4ccc(F)c(F)c4)C3)CC2)C1` (single isomer, unassigned) [Compound 285], the IC50 is 0.00631 µM in test [1], 3.16 µM in test [2] and 0.631 µM in test [3].

With `O=C(C1CCOC1)N1CCC(N2CCN(C3CCN(C(=O)c4cc(C(F)(F)F)cc(C(F)(F)F)c4)C(Cc4ccc(Cl)c(Cl)c4)C3)CC2)C1` (single isomer, unassigned) [Compound 290], the results for the IC50 in test [1], in test [2] and in test [3] were 0.00398 µM, 1.58 µM and 0.398 µM, respectively.

For the molecule `O=C(C1CCOC1)N1CCC(N2CCN(C3CCN(C(=O)c4cc(C(F)(F)F)cc(C(F)(F)F)c4)C(Cc4ccc(Cl)c(Cl)c4)C3)CC2)C1` (single isomer, unassigned) [Compound 330], the IC50 in test [1] is 0.00316 µM; in test [2], 0.631 µM; in test [3], 0.398 µM.

On to `O=C(C1CCOC1)N1CCC(N2CCN(C3CCN(C(=O)c4cc(C(F)(F)F)cc(C(F)(F)F)c4)C(Cc4ccc(Cl)c(Cl)c4)C3)CC2)C1` (single isomer, unassigned) [Compound 331], for which the IC50 is 0.00316 µM in test [1], 2 µM in test [2] and 0.251 µM in test [3].

`O=C(C1CCCCC1)N1CCC(N2CCN(C3CCN(C(=O)c4cc(C(F)(F)F)cc(C(F)(F)F)c4)C(Cc4ccc(F)c(F)c4)C3)CC2)C1` (single isomer, unassigned) [Compound 357]: the values for the IC50 in test [1], in test [2] and in test [3] were 0.01 µM, 3.16 µM and 0.794 µM, respectively.

Consider `CC(C)(C)C(=O)N1CCC(N2CCN(C3CCN(C(=O)c4cc(C(F)(F)F)cc(C(F)(F)F)c4)C(Cc4ccc(F)c(F)c4)C3)CC2)C1` (single isomer, unassigned) [Compound 364], for which the IC50 is 0.00794 µM in test [1], 2 µM in test [2] and 0.631 µM in test [3].

In the case of `CC(C)(C)C(=O)N1CCC(N2CCN([C@@H]3CCN(C(=O)c4cc(C(F)(F)F)cc(C(F)(F)F)c4)[C@H](Cc4ccc(F)c(F)c4)C3)CC2)C1` (single isomer, unassigned) [Compound 365], the values for the IC50 in test [1], in test [2] and in test [3] were 0.00794 µM, 2.51 µM and 0.501 µM, respectively.

As for `Cn1cccc1C(=O)N1CCC(N2CCN(C3CCN(C(=O)c4cc(C(F)(F)F)cc(C(F)(F)F)c4)C(Cc4ccc(F)c(F)c4)C3)CC2)C1` (single isomer, unassigned) [Compound 366], the figures for the IC50 in test [1], in test [2] and in test [3] were 0.00631 µM, 2 µM and 0.1 µM, respectively.

With `Cn1cccc1C(=O)N1CCC(N2CCN(C3CCN(C(=O)c4cc(C(F)(F)F)cc(C(F)(F)F)c4)C(Cc4ccc(F)c(F)c4)C3)CC2)C1` (single isomer, unassigned) [Compound 367], the IC50 in test [1] is 0.01 µM; in test [2], 1.26 µM; in test [3], 1.58 µM.

Take `Cn1cccc(C(=O)N2CCC(N3CCN(C4CCN(C(=O)c5cc(C(F)(F)F)cc(C(F)(F)F)c5)C(Cc5ccc(F)c(F)c5)C4)CC3)C2)c1=O` (single isomer, unassigned) [Compound 368]: the values for the IC50 in test [1], in test [2] and in test [3] were 0.01 µM, 3.16 µM and 3.16 µM, respectively.

As to `Cc1nnsc1C(=O)N1CCC(N2CCN(C3CCN(C(=O)c4cc(C(F)(F)F)cc(C(F)(F)F)c4)C(Cc4ccccc4)C3)CC2)C1` (single isomer, unassigned) [Compound 380], the IC50 in test [1] was 0.00631 µM; in test [2], 7.94 µM; in test [3] it was 1.58 µM.

As for `O=C(C1CCCCC1)N1CCC(N2CCN(C3CCN(C(=O)c4cc(C(F)(F)F)cc(C(F)(F)F)c4)C(Cc4ccccc4)C3)CC2)C1` (single isomer, unassigned) [Compound 403], the IC50 in test [1] is 0.00794 µM; in test [2] it was 2.51 µM; in test [3] it was 2.51 µM.

With `O=C(c1cc(C(F)(F)F)cc(C(F)(F)F)c1)N1CC[C@H](N2CCN(C3CCN(c4cnccn4)C3)CC2)C[C@H]1Cc1ccccc1` (stereo partly drawn) [Compound 4], the IC50 in test [1] is 0.0251 µM; in test [2], 6.31 µM; in test [3], 0.158 µM.

`O=C(c1cc(C(F)(F)F)cc(C(F)(F)F)c1)N1CCC(N2CCN(C3CCN(c4ncccn4)C3)CC2)CC1Cc1ccccc1` (stereo not drawn) [Compound 5]: the IC50 was 0.0316 µM in test [1], 6.31 µM in test [2] and 0.631 µM in test [3].

As to `Cc1ccccc1C(=O)N1CCC(N2CCN([C@H]3CCN(C(=O)c4cc(C(F)(F)F)cc(C(F)(F)F)c4)[C@H](Cc4ccccc4)C3)CC2)C1` (stereo partly drawn) [Compound 13], the figures for the IC50 in test [1], in test [2] and in test [3] were 0.0251 µM, 3.98 µM and 0.2 µM, respectively.

Turning to `COc1ccccc1C(=O)N1CCC(N2CCN([C@H]3CCN(C(=O)c4cc(C(F)(F)F)cc(C(F)(F)F)c4)[C@H](Cc4ccccc4)C3)CC2)C1` (stereo partly drawn) [Compound 14], the IC50 in test [1] is 0.00794 µM; in test [2], 5.01 µM; in test [3], 0.316 µM.

Regarding `O=C(c1ccccc1F)N1CCC(N2CCN([C@H]3CCN(C(=O)c4cc(C(F)(F)F)cc(C(F)(F)F)c4)[C@H](Cc4ccccc4)C3)CC2)C1` (stereo partly drawn) [Compound 16], the values for the IC50 in test [1], in test [2] and in test [3] were 0.0316 µM, 5.01 µM and 2.51 µM, respectively.

The values above are taken from patent publication US7795261B2, “Substituted 1-piperidin-4-yl-4-pyrrolidin-3-yl-piperazine derivatives and their use as neurokinin antagonists” (Janssen Pharmaceutica NV, priority 2002, dated 2010).
